Experimental data published in US20080227780A1, “SOLUBLE EPOXIDE HYDROLASE INHIBITORS” (Arete Therapeutics, Inc., priority 2007, published 2008).

These compounds were tested on soluble epoxide hydrolase (sEH) (assay: Fluorescent assay for soluble epoxide hydrolase (CMNPC substrate), percent inhibition at the recited concentration). Settings: Inhibition Conc. 50 nM.
Assay type: biochemical
Source text: Fluorescent Assay for Mouse and Human Soluble Epoxide Hydrolase Recombinant mouse sEH (MsEH) and human sEH (HsEH) were produced in a baculovirus expression system as previously reported. Grant et al., J. Biol. Chem., 268:17628-17633 (1993); Beetham et al., Arch. Biochem. Biophys., 305:197-201 (1993). The expressed proteins were purified from cell lysate by affinity chromatography. Wixtrom et al., Anal. Biochem., 169:71-80 (1988). Protein concentration was quantified using the Pierce BCA assay using bovine serum albumin as the calibrating standard. The preparations were at least 97% pure as judged by SDS-PAGE and scanning densitometry. They contained no detectable esterase or glutathione transferase activity which can interfere with the assay. The assay was also evaluated with similar results in crude cell lysates or homogenate of tissues. The IC50s for each inhibitor were determined according to the following procedure: […] Jones P. D. et al.; Analytical Biochemistry 2005; 343: pp. 66-75) Bis/Tris HCl 25 mM pH 7.0 containing 0.1 mg/mL of BSA (buffer […] at 0.25 mM in DMSO. Mother solution of enzyme in buffer A (Mouse sEH at 6 μg/mL and Human sEH at 5 μg/mL). Inhibitor dissolved in DMSO at the appropriate concentration. In a black 96 well plate, fill all the wells with 150 μL of buffer A. Add 2 μL of DMSO in well A2 and A3, and then add 2 μL of inhibitor solution in A1 and A4 through A12. Add 150 μL of buffer A in row A, then mix several time and transfer 150 μL to row B. Repeat this operation up to row H. The 150 μL removed from row H is discarded. Add 20 μL of buffer A in column 1 and 2, then add 20 μL of enzyme solution to column 3 to 12. Incubate the plate for 5 minutes in the plate reader at 30° C. During incubation prepare the working solution of substrate by mixing 3.68 mL of buffer A (4×0.920 mL) with 266 μL (2×133 μL) of substrate solution). At t=0, add 30 μL of working substrate solution with multi-channel pipette labeled “Briggs 303” and start the reading ([S]final: 5 μM). Read with ex: 330 nm (20 nm) and em: 465 nm (20 nm) every 30 second for 10 minutes. The velocities are used to analyze and calculate the IC50s. Tables 1-7 above provide the percent inhibition of the enzyme when tested at the concentration recited therein.

% inh. [%]	Structure (SMILES)
93	CNS(=O)(=O)c1cccc(C(=O)N2CCC(NC(=O)Nc3ccc(OC(F)(F)F)cc3)CC2)c1 [Compound 4-10, N-methyl-3-(4-(3-(4-(trifluoromethoxy)-phenyl)ureido)-piperidine-1-carbonyl)benzene-sulfonamide]
80	CC(C)(C)OC(=O)N1CCC(NC(=O)Nc2ccc(S(=O)(=O)N3CCOCC3)cc2)CC1 [Compound 5-1, tert-butyl 4-(3-(4-(morpholinosulfonyl)-phenyl)ureido)-piperidine-1-carboxylate]
86	CC(C)(C)OC(=O)N1CCC(NC(=O)Nc2ccc3ncccc3c2)CC1 [Compound 6-1, tert-butyl 4-(3-quinolin-6-yl-ureido)piperidine-1-carboxylate]
92	CC(C)(C)OC(=O)N1CCC(NC(=O)Nc2ccc3c(c2)CCC3)CC1 [Compound 6-5, tert-butyl 4-(3-(2,3-dihydro-1H-inden-5-yl)ureido)-piperidine-1-carboxylate]

Same assay, conditions: Inhibition Conc. 200 nM

% inh. [%]	Structure (SMILES)
77	Cc1nc2ccc(NC(=O)NC3CCN(C(=O)OC(C)(C)C)CC3)cc2s1 [Compound 6-14, tert-butyl 4-(3-(2-methylbenzo[d]thiazol-6-yl)ureido)piperidine-1-carboxylate]

Same assay, conditions: Inhibition Conc. 500 nM

% inh. [%]	Structure (SMILES)
90	CC(=O)N1CCC(NC(=O)Nc2ccc(S(=O)(=O)N3CCOCC3)cc2)CC1 [Compound 5-2, 1-(1-acetylpiperidin-4-yl)-3-(4-(morpholinosulfonyl)phenyl)urea]
87	CC(C)(C)OC(=O)N1CCC(NC(=O)Nc2ccc3cc[nH]c3c2)CC1 [Compound 6-2, tert-butyl 4-(3-1H-indol-6-yl-ureido)piperidine-1-carboxylate]
93	CC(C)(C)OC(=O)N1CCC(NC(=O)Nc2ccc(-c3nnn[nH]3)cc2)CC1 [Compound 6-8, tert-butyl 4-(3-(4-(1H-tetrazol-5-yl)phenyl)-ureido)piperidine-1-carboxylate]

The remaining lines, values behind:

Structure (SMILES)	% inh. [%]
CNS(=O)(=O)c1ccc(C(=O)N2CCC(NC(=O)Nc3ccc(F)cc3)CC2)cc1 [Compound 4-11, 4-(4-(3-(4-fluorophenyl)ureido)piperidine-1-carbonyl)-N-methylbenzene-sulfonamide]	94
CC(=O)N1CCC(NC(=O)Nc2ccc3ncccc3c2)CC1 [Compound 6-4, 1-(1-acetylpiperidin-4-yl)-3-(quinolin-6-yl)urea]	70
CC(=O)N1CCC(NC(=O)Nc2ccc3c(c2)CCC3)CC1 [Compound 6-6, 1-(1-acetyl-piperidin-4-yl)-3-(2,3-dihydro-1H-inden-5-yl)urea]	93

Same assay, conditions: Inhibition Conc. 2000 nM

% inh. [%]	Structure (SMILES)
18	CC(=O)N1CCC(NC(=O)Nc2ccccn2)CC1 [Compound 6-10, 1-(1-acetylpiperidin-4-yl)-3-(pyridin-2-yl)urea]
44	COc1ccc(NC(=O)NC2CCN(C(C)=O)CC2)cn1 [Compound 6-11, 1-(1-acetylpiperidin-4-yl)-3-(6-methoxypyridin-3-yl)urea]
40	CC(=O)N1CCC(NC(=O)Nc2cccnc2)CC1 [Compound 6-12, 1-(1-acetylpiperidin-4-yl)-3-(pyridin-3-yl)urea]
97	COc1ccc(NC(=O)NC2CCN(C(=O)C(C)(C)C)CC2)cn1 [Compound 6-13, 1-(6-methoxypyridin-3-yl)-3-(1-pivaloylpiperidin-4-yl)urea]
70	CC(=O)N1CCC(NC(=O)Nc2ccc3nc(C)sc3c2)CC1 [Compound 6-15, 1-(1-acetylpiperidin-4-yl)-3-(2-methylbenzo[d]thiazol-6-yl)urea]

Same assay, conditions: Inhibition Conc. 5000 nM

% inh. [%]	Structure (SMILES)
81	CC(C)(C)OC(=O)N1CCC(NC(=O)Nc2ccncc2)CC1 [Compound 6-3, tert-butyl 4-(3-pyridin-4-yl-ureido)piperidine-1-carboxylate]
84	CC(=O)N1CCC(NC(=O)Nc2ccc(-c3nnn[nH]3)cc2)CC1 [Compound 6-9, 1-(4-(1H-tetrazol-5-yl)phenyl)-3-(1-acetylpiperidin-4-yl)urea]

Same assay, conditions: Inhibition Conc. 50000 nM

% inh. [%]	Structure (SMILES)
53	CC(=O)N1CCC(NC(=O)Nc2ccncc2)CC1 [Compound 6-7, 1-(1-acetyl-piperidin-4-yl)-3-(pyridin-4-yl)urea]
